Data published in patent US12083094B2, “Cannabinoid composition and methods of treatment using the same” (CANNPAL ANIMAL THERAPEUTICS LIMITED, priority 2018, dated 2024).

Assay: Blood sampling for THC and CBD plasma concentration after single oral dosing
Conditions: for concentration at 0 h / concentration at 1 h / concentration at 1.5 h / concentration at 2 h / concentration at 3 h / concentration at 4 h / concentration at 12 h / concentration at 16 h / concentration at 24 h / concentration at 72 h / concentration at 0.67 h / concentration at 6 h / concentration at 8 h / concentration at 32 h / concentration at 48 h: oral, THC level in blood plasma fraction; for AUC: AUC for THC concentration, canine
Description: Two compositions, IVP1 and IVP2, were administered in varying amounts in the study.
Dosage volumes were calculated prior to Day 0, to provide the target dosage in mg/kg bodyweight based on actual dog bodyweights and IVP active ingredient composition based on the Certificates of Analysis.
Blood samples of approximately 5 mL were collected at each drug concentration sampling time-point from each animal using 22-gauge needles and 5 mL syringes.
The data points from Table 4 and Table 5 were also plotted and these graphs are set out in FIGS. 1-16.

[1] = dog, plasma, individual dogs 1-4, 0.24 mg/kg THC + 0.12 mg/kg CBD oral once
[2] = dog, plasma, individual dogs 5-8, 0.12 mg/kg THC + 0.24 mg/kg CBD oral once
[3] = dog, plasma, mean of dogs 1-4, 0.24 mg/kg THC + 0.12 mg/kg CBD oral once
[4] = dog, plasma, mean of dogs 5-8, 0.12 mg/kg THC + 0.24 mg/kg CBD oral once

In the case of `CCCCCc1cc(O)c2c(c1)OC(C)(C)[C@@H]1CCC(C)=C[C@@H]21` [THC, Δ^9-Tetrahydrocannabinol], the “THC in the subject's blood” value (72 h after administration) is reported as “detectable”, the concentration at 0 h [1] is reported as 0 ng/mL and the concentration at 1 h [1] is reported as 45.2 ng/mL. For the same compound, the concentration at 1.5 h [1] was 30.1 ng/mL, the concentration at 2 h [1] was 25.6 ng/mL and the concentration at 0 h [2] was 0 ng/mL. The concentration at 2 h [2] was 22.3 ng/mL, the concentration at 3 h [2] was 8.19 ng/mL and the concentration at 4 h [2] was 4.19 ng/mL. It also gave a concentration at 12 h [2] of 0.56 ng/mL, a concentration at 16 h [2] of 0.34 ng/mL and a concentration at 24 h [2] of 0.23 ng/mL. For the same compound, the concentration at 72 h [2] was 0 ng/mL, the concentration at 0 h [3] was 0 ng/mL and the concentration at 0.67 h [3] was 39 ng/mL. It also gave a concentration at 1 h [3] of 40.7 ng/mL, a concentration at 1.5 h [3] of 32.6 ng/mL and a concentration at 2 h [3] of 26.1 ng/mL. The concentration at 3 h [3] was 15.8 ng/mL, the concentration at 4 h [3] was 10.1 ng/mL and the concentration at 6 h [3] was 6.33 ng/mL. The concentration at 8 h [3] was 3.98 ng/mL, the concentration at 12 h [3] was 1.36 ng/mL and the concentration at 16 h [3] was 0.75 ng/mL. For the same compound, the concentration at 24 h [3] was 0.41 ng/mL, the concentration at 32 h [3] was 0.43 ng/mL and the concentration at 48 h [3] was 0.24 ng/mL. It also gave a concentration at 72 h [3] of 0.16 ng/mL, a concentration at 0 h [4] of 0 ng/mL and a concentration at 0.67 h [4] of 27.9 ng/mL. It also gave a concentration at 1 h [4] of 36.8 ng/mL, a concentration at 1.5 h [4] of 27.7 ng/mL and a concentration at 2 h [4] of 18 ng/mL. For the same compound, the concentration at 3 h [4] was 7.84 ng/mL, the concentration at 4 h [4] was 4.29 ng/mL and the concentration at 6 h [4] was 3 ng/mL. The concentration at 8 h [4] was 2.38 ng/mL, the concentration at 12 h [4] was 0.65 ng/mL and the concentration at 16 h [4] was 0.44 ng/mL. It also gave a concentration at 24 h [4] of 0.28 ng/mL, a concentration at 32 h [4] of 0.28 ng/mL and a concentration at 48 h [4] of 0.09 ng/mL. The concentration at 72 h [4] was 0 ng/mL, the AUC(0-inf) (dog, plasma, po) was 0.6 ng·h/mL and the Cmax (dog, plasma, po) was 19 to 71.3 ng/mL. The half-life (dog, plasma, po) was 18.4 h, the AUC (dog, plasma, po, 0.12 mg/kg, 0.12 mg/kg THC in combination with 0.24 mg/kg CBD) was 90 to 110 ng·h/mL and the AUC (dog, plasma, po, 0.24 mg/kg, 0.24 mg/kg THC in combination with 0.12 mg/kg CBD) was 145 to 170 ng·h/mL.
